Results published in patent US20200231638A1, “STABILIZED ANTI-MICROBIAL PEPTIDES” (priority 2015, published 2020).
Bridge positions count the residues as written; N and C are the ends. Square brackets hold non-standard residues; d marks the D form. Peptide text beside a SMILES is read from it. R8 = C=CCCCCCC[C@@](C)(N)C(=O)O; S5 = C=CCCC[C@](C)(N)C(=O)O; Nle = CCCC[C@H](N)C(=O)O

What was measured:
P. aeruginosa = type: cell-based, Pseudomonas aeruginosa
Description: (§1) Antimicrobial Activity Assay:
(§2) The following microbroth dilution protocol was adapted to determine the minimum inhibitory concentration (MIC) of each peptide. First, Mueller-Hinton broth (MHB) was passed through an anion exchange column to remove polyanionic species and generate refined MHB. […] Briefly, bacterial cells was grown overnight in refined MHB at 37° C. and then diluted and allowed to grow again for several hours. Serial dilutions of peptide stocks in water (10 μl) were prepared using clear round-bottom polypropylene 96-well plates. Then 90 μl of bacteria in refined MHB was added to give a final inoculum of 5×10^5 CFU/ml. The plates were then covered with porous tape to reduce evaporation, and incubated for 20-24 hours at 37° C. The MIC is the minimum peptide concentration at which no visible growth was observed.

human red blood cells = type: cell-based; settings: red cells of human, 1 h, 25
Description: FIG. 5 is a series of line graphs depicting the hemolytic activity of magainin II and stapled analogues. Peptides were incubated with 1% (v/v) human red blood cells in phosphate-buffered solution for 1 hour at 37° C. and then the supernatant was isolated and the amount of hemoglobin released was measured at 540 nm. % hemolysis was calculated relative to an untreated control.
Hemolytic Activity Assay:
For the determination of hemolytic activity, human blood samples were centrifuged to isolate red blood cells (RBCs), which are then washed and suspended in phosphate-buffered saline to yield a 1% (v/v) suspension. The suspension was then added to serial dilutions of peptide stocks in water in clear round-bottom polypropylene 96-well plates and the plates were incubated for 1 hour at 37° C. After incubation, the plates were centrifuged and the supernatant was isolated to determine the amount of hemoglobin released using a spectrophotometer (570 nm), according to the equation: % Hemolysis=(Treated Absorbance−Untreated Control Absorbance)/(1% Triton-X100 Treated Absorbance−Untreated Control Absorbance). The minimum hemolytic concentration (MHC) is the peptide concentration at which there is less than 1% hemoglobin release.

E. coli = type: cell-based, Escherichia coli
Description: as §1, §2

S. aureus = type: cell-based, Staphylococcus aureus
Description: as §1, §2

B. cereus = type: cell-based, Bacillus cereus
Description: as §1, §2

Row | Structure (SMILES) | MIC P. aeruginosa (P. aeruginosa) | MIC E. coli (E. coli) | MIC S. aureus (S. aureus) | MIC B. cereus (B. cereus) | % Hemolysis at 25 μg/ml (human red blood cells)
1 | CCCC[C@H](NC(=O)[C@]1(C)CCCC=CCCC[C@](C)(NC(=O)[C@H](C)NC(=O)[C@H](CCCCN)NC(=O)CNC(=O)[C@H](Cc2ccccc2)NC(=O)[C@H](CCCCN)NC(=O)[C@H](CCCCN)NC(=O)[C@H](C)NC(=O)[C@H](CO)NC(=O)[C@H](Cc2c[nH]cn2)NC(=O)[C@H](CC(C)C)NC(=O)[C@H](Cc2ccccc2)NC(=O)[C@H](CCCCN)NC(=O)CNC(=O)[C@@H](NC(=O)[C@@H](N)CCC(=O)O)[C@@H](C)CC)C(=O)N[C@@H](C(C)C)C(=O)NCC(=O)N[C@@H](CCC(=O)O)C(=O)N1)C(=O)N[C@@H](CC(N)=O)C(=O)N[C@@H](CO)C(N)=O [Mag(i + 4)15(G1E), EIGKFLHSAKKFGKAXVGEXBNS] (H-EIGKFLHSAKKFGKA[S5]VGE[S5][Nle]NS-NH2; staple 16-20) | 50 µg/mL | 12.5 µg/mL | >50 µg/mL | >50 µg/mL | 4.1%
2 | CCCC[C@H](NC(=O)[C@@H](NC(=O)[C@H](CCC(=O)O)NC(=O)CNC(=O)[C@@H](NC(=O)[C@H](Cc1ccccc1)NC(=O)[C@H](C)NC(=O)[C@H](CCCCN)NC(=O)CNC(=O)[C@H](Cc1ccccc1)NC(=O)[C@H](CCCCN)NC(=O)[C@H](CCCCN)NC(=O)[C@]1(C)CCCC=CCCC[C@](C)(NC(=O)[C@H](CCCCN)NC(=O)CNC(=O)[C@@H](NC(=O)CN)[C@@H](C)CC)C(=O)N[C@@H](CC(C)C)C(=O)N[C@@H](Cc2c[nH]cn2)C(=O)N[C@@H](CO)C(=O)N1)C(C)C)[C@@H](C)CC)C(=O)N[C@@H](CC(N)=O)C(=O)N[C@@H](CO)C(N)=O [Mag(i + 4)4] (H-GIGK[S5]LHS[S5]KKFGKAFVGEI[Nle]NS-NH2; staple 5-9) | 12.5 µg/mL | 3.1 µg/mL | 25 µg/mL | 6.2 µg/mL | 17.8%
3 | CCCC[C@H](NC(=O)[C@]1(C)CCCC=CCCC[C@](C)(NC(=O)[C@H](C)NC(=O)[C@H](CCCCN)NC(=O)CNC(=O)[C@H](Cc2ccccc2)NC(=O)[C@H](CCCCN)NC(=O)[C@H](CCCCN)NC(=O)[C@H](C)NC(=O)[C@H](CO)NC(=O)[C@H](Cc2c[nH]cn2)NC(=O)[C@H](CC(C)C)NC(=O)[C@H](Cc2ccccc2)NC(=O)[C@H](CCCCN)NC(=O)[C@H](CCC(=O)O)NC(=O)[C@@H](NC(=O)CN)[C@@H](C)CC)C(=O)N[C@@H](C(C)C)C(=O)NCC(=O)N[C@@H](CCC(=O)O)C(=O)N1)C(=O)N[C@@H](CC(N)=O)C(=O)N[C@@H](CO)C(N)=O [Mag(i + 4)15(G3E), GIEKFLHSAKKFGKAXVGEXBNS] (H-GIEKFLHSAKKFGKA[S5]VGE[S5][Nle]NS-NH2; staple 16-20) | 12.5 µg/mL | 3.1 µg/mL | 50 µg/mL | 12.5 µg/mL | 3.9%
4 | CCCC[C@H](NC(=O)[C@@H](NC(=O)[C@H](CCC(=O)O)NC(=O)CNC(=O)[C@@H](NC(=O)[C@H](Cc1ccccc1)NC(=O)[C@H](C)NC(=O)[C@H](CCCCN)NC(=O)CNC(=O)[C@H](Cc1ccccc1)NC(=O)[C@H](CCCCN)NC(=O)[C@H](CCCCN)NC(=O)[C@H](C)NC(=O)[C@H](CO)NC(=O)[C@H](Cc1c[nH]cn1)NC(=O)[C@]1(C)CCCC=CCCC[C@](C)(NC(=O)CN)C(=O)NCC(=O)N[C@@H](CCCCN)C(=O)N[C@@H](Cc2ccccc2)C(=O)N1)C(C)C)[C@@H](C)CC)C(=O)N[C@@H](CC(N)=O)C(=O)N[C@@H](CO)C(N)=O [Mag(i + 4)1, GXGKFXHSAKKFGKAFVGEIBNS] (H-G[S5]GKF[S5]HSAKKFGKAFVGEI[Nle]NS-NH2; staple 2-6) | 12.5 µg/mL | 3.1 µg/mL | >50 µg/mL | 25 µg/mL | –
5 | CCCC[C@H](NC(=O)[C@@H](NC(=O)[C@H](CCC(=O)O)NC(=O)CNC(=O)[C@@H](NC(=O)[C@H](Cc1ccccc1)NC(=O)[C@H](C)NC(=O)[C@H](CCCCN)NC(=O)CNC(=O)[C@H](Cc1ccccc1)NC(=O)[C@]1(C)CCCC=CCCC[C@](C)(NC(=O)[C@H](CC(C)C)NC(=O)[C@H](Cc2ccccc2)NC(=O)[C@H](CCCCN)NC(=O)CNC(=O)[C@@H](NC(=O)CN)[C@@H](C)CC)C(=O)N[C@@H](CO)C(=O)N[C@@H](C)C(=O)N[C@@H](CCCCN)C(=O)N1)C(C)C)[C@@H](C)CC)C(=O)N[C@@H](CC(N)=O)C(=O)N[C@@H](CO)C(N)=O [Mag(i + 4)6, GIGKFLXSAKXFGKAFVGEIBNS] (H-GIGKFL[S5]SAK[S5]FGKAFVGEI[Nle]NS-NH2; staple 7-11) | 25 µg/mL | 6.2 µg/mL | 25 µg/mL | 12.5 µg/mL | –
6 | CCCC[C@H](NC(=O)[C@]1(C)CCCC=CCCC[C@](C)(NC(=O)[C@H](C)NC(=O)[C@H](CCCCN)NC(=O)CNC(=O)[C@H](Cc2ccccc2)NC(=O)[C@H](CCCCN)NC(=O)[C@H](CCCCN)NC(=O)[C@H](CCCCN)NC(=O)[C@H](CO)NC(=O)[C@]2(C)CCCC=CCCC[C@](C)(NC(=O)[C@@H](NC(=O)CN)[C@@H](C)CC)C(=O)N[C@@H](CCCCN)C(=O)N[C@@H](Cc3ccccc3)C(=O)N[C@@H](CC(C)C)C(=O)N2)C(=O)N[C@@H](C(C)C)C(=O)NCC(=O)N[C@@H](CCC(=O)O)C(=O)N1)C(=O)N[C@@H](CC(N)=O)C(=O)N[C@@H](CO)C(N)=O [Mag(i + 4)2, 15(A9K), GIXKFLXSKKKFGKAXVGEXBNS] (H-GI[S5]KFL[S5]SKKKFGKA[S5]VGE[S5][Nle]NS-NH2; staple 3-7, 16-20) | 3.1 µg/mL | 1.6 µg/mL | 3.1 µg/mL | 3.1 µg/mL | –

Further lines, with some results ahead:

Row | MIC P. aeruginosa (P. aeruginosa) | MIC E. coli (E. coli) | MIC S. aureus (S. aureus) | MIC B. cereus (B. cereus) | Structure (SMILES) | % Hemolysis at 25 μg/ml (human red blood cells)
7 | 6.2 µg/mL | 1.6 µg/mL | 3.1 µg/mL | 3.1 µg/mL | CCCC[C@H](NC(=O)[C@]1(C)CCCC=CCCC[C@](C)(NC(=O)[C@H](C)NC(=O)[C@H](CCCCN)NC(=O)[C@H](C)NC(=O)[C@H](Cc2ccccc2)NC(=O)[C@H](CCCCN)NC(=O)[C@H](CCCCN)NC(=O)[C@H](C)NC(=O)[C@H](CO)NC(=O)[C@H](Cc2c[nH]cn2)NC(=O)[C@H](CC(C)C)NC(=O)[C@H](Cc2ccccc2)NC(=O)[C@H](CCCCN)NC(=O)CNC(=O)[C@@H](NC(=O)CN)[C@@H](C)CC)C(=O)N[C@@H](C(C)C)C(=O)NCC(=O)N[C@@H](CCC(=O)O)C(=O)N1)C(=O)N[C@@H](CC(N)=O)C(=O)N[C@@H](CO)C(N)=O [Mag(i + 4)15(G13A), GIGKFLHSAKKFAKAXVGEXBNS] (H-GIGKFLHSAKKFAKA[S5]VGE[S5][Nle]NS-NH2; staple 16-20) | 20.5%
8 | 3.1 µg/mL | 3.1 µg/mL | 3.1 µg/mL | 3.1 µg/mL | CCCC[C@H](NC(=O)[C@@H](NC(=O)[C@H](CCC(=O)O)NC(=O)CNC(=O)[C@]1(C)CCCC=CCCCCCC[C@@](C)(NC(=O)[C@H](C)NC(=O)[C@H](CO)NC(=O)[C@H](Cc2c[nH]cn2)NC(=O)[C@H](CC(C)C)NC(=O)[C@H](Cc2ccccc2)NC(=O)[C@H](CCCCN)NC(=O)CNC(=O)[C@@H](NC(=O)CN)[C@@H](C)CC)C(=O)N[C@@H](CCCCN)C(=O)N[C@@H](Cc2ccccc2)C(=O)NCC(=O)N[C@@H](CCCCN)C(=O)N[C@@H](C)C(=O)N[C@@H](Cc2ccccc2)C(=O)N1)[C@@H](C)CC)C(=O)N[C@@H](CC(N)=O)C(=O)N[C@@H](CO)C(N)=O [Mag(i + 7)9] (H-GIGKFLHSA[R8]KFGKAF[S5]GEI[Nle]NS-NH2; staple 10-17 (inferred); N-terminus and C-terminus assumed) | 94.6%
9 | 3.1 µg/mL | 1.6 µg/mL | 6.2 µg/mL | 3.1 µg/mL | CCCC[C@H](NC(=O)[C@@H](NC(=O)[C@H](CCC(=O)O)NC(=O)CNC(=O)[C@@H](NC(=O)[C@]1(C)CCCC=CCCCCCC[C@@](C)(NC(=O)[C@H](CO)NC(=O)[C@H](Cc2c[nH]cn2)NC(=O)[C@H](CC(C)C)NC(=O)[C@H](Cc2ccccc2)NC(=O)[C@H](CCCCN)NC(=O)CNC(=O)[C@@H](NC(=O)CN)[C@@H](C)CC)C(=O)N[C@@H](CCCCN)C(=O)N[C@@H](CCCCN)C(=O)N[C@@H](Cc2ccccc2)C(=O)NCC(=O)N[C@@H](CCCCN)C(=O)N[C@@H](C)C(=O)N1)C(C)C)[C@@H](C)CC)C(=O)N[C@@H](CC(N)=O)C(=O)N[C@@H](CO)C(N)=O [Mag(i + 7)8] (H-GIGKFLHS[R8]KKFGKA[S5]VGEI[Nle]NS-NH2; staple 9-16 (inferred); N-terminus and C-terminus assumed) | 85.4%
